According to patent US12552772B2, “2-pyrazole anilines and related analogs for inhibiting YAP/TAZ-TEAD” (KATHOLIEKE UNIVERSITEIT LEUVEN, priority 2021, dated 2026):

What was measured:
Type in all cases: cell-based
NCI-H226 = assay: Mesothelioma cell line proliferation assay (ATPlite), NCI-H226; conditions: Homo sapiens, 144 h; NCI-H226 cells, 6 days, ATPlite cell viability
Method: (§1) Mesothelioma cell lines, NCI-H226 and NCI-H2052 (all sourced from the ATCC cell culture collection) are plated in 96-well plates (Corning® 96 Well White Polystyrene Microplate clear flat bottom, white polystyrene (TC-Treated)), at 1500 cells/well in full medium (RPMI 1640 ATCC modification with L-glutamine, HEPES, Phenol Red, Sodium Pyruvate, High glucose, Low sodium bicarbonate and 10% fetal bovine serum). Cells are incubated overnight at 37° C. in an incubator with 5% CO2. Then compounds, dissolved in DMSO, are added in dose-response. Cells are incubated with compound dilutions for another 6 days at 37° C. in an incubator with 5% CO2. Cell viability is quantitated using the ATPlite kit (Perkin-Elmer) and the luminescence is read-out using an Envision instrument (Perkin-Elmer). The amount of relative light units produced using the ATPlite kit is used to calculated percent of inhibition.
(§2) The activities of example compounds tested are depicted in the table below. The activity ranges A, B and C refer to EC50 values in the mesothelioma cell line proliferation assay as described as follows: “A”: EC50<1 μM; “B”: 1 μM s EC50≤10 μM and “C”: EC50>10 μM. NT: not tested.

NCI-H2052 = assay: Mesothelioma cell line proliferation assay (ATPlite), NCI-H2052; conditions: Homo sapiens, NCI-H2052, 144 h, NCI-H2052 cells, 6 days, ATPlite cell viability
Method: as §1, §2

[1] = test system: YAP/TAZ-TEAD transcription; assay: Reporter gene assay for measuring the inhibition of YAP/TAZ-TEAD transcription (TEAD-responsive element luciferase reporter in Hek293T cells); conditions: Homo sapiens, HEK-293T, 24 hours incubation
In short: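 Percent inhibition, scaled between vehicle (0%) and a positive control inhibitor (100%), came from SteadyLite luciferase signal after 24 h compound exposure at 37 °C/5% CO2. Cells: Hek293T transiently carrying a TEAD-responsive luciferase reporter; EC50 derived.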

C=CC(=O)NCc1cc(-c2ccc(F)cc2)nc(-c2ccn(C(F)F)n2)n1 [Cpd. No. 255, N-((2-(1-(difluoromethyl)-1H-pyrazol-3-yl)-6-(4-fluorophenyl)pyrimidin-4-yl)methyl)acrylamide]
EC50 (NCI-H226): < 1 µM
EC50 (NCI-H2052): 1 to 10 µM
EC50 [1]: < 1 µM

C=CC(=O)NCc1cc(-c2ccc(F)cc2)cc(-c2ccn(C(F)F)n2)n1 [Cpd. No. 225, N-((6-(1-(difluoromethyl)-1H-pyrazol-3-yl)-4-(4-fluorophenyl)pyridin-2-yl)methyl)acrylamide]
EC50 (NCI-H226): < 1 µM
EC50 (NCI-H2052): 1 to 10 µM
EC50 [1]: < 1 µM

C=CC(=O)NCc1ncc(-c2ccc(F)cc2)cc1-c1ccn(C)n1 [compound 201, N-((5-(4-fluorophenyl)-3-(1-methyl-1H-pyrazol-3-yl)pyridin-2-yl)methyl)acrylamide]
EC50 (NCI-H226): < 1 µM
EC50 (NCI-H2052): < 1 µM
EC50 [1]: < 1 µM

C=CC(=O)NCc1cnc(-c2cccc(F)c2)cc1-c1ccn(C(F)F)n1 [compound 211, N-((4-(1-(difluoromethyl)-1H-pyrazol-3-yl)-6-(3-fluorophenyl)pyridin-3-yl)methyl)acrylamide]
EC50 (NCI-H226): < 1 µM
EC50 (NCI-H2052): 1 to 10 µM
EC50 [1]: < 1 µM

C=CC(=O)NCc1cnc(-c2ccc(F)cc2)nc1-c1ccn(C)n1 [Cpd. No. 253, N-((2-(4-fluorophenyl)-4-(1-methyl-1H-pyrazol-3-yl)pyrimidin-5-yl)methyl)acrylamide]
EC50 (NCI-H226): < 1 µM
EC50 (NCI-H2052): < 1 µM
EC50 [1]: < 1 µM

C=CC(=O)NCc1ccc(-c2ccc(F)cc2)cc1-c1ccccn1 [compound 165, N-((4′-fluoro-3-(pyridin-2-yl)-[1,1′-biphenyl]-4-yl)methyl)acrylamide]
EC50 (NCI-H226): < 1 µM
EC50 (NCI-H2052): < 1 µM
EC50 [1]: < 1 µM

C=C(F)C(=O)NCc1ccc(-c2ccc(C(F)(F)F)cc2)cc1-c1ccn(C)n1 [compound 177, 2-fluoro-N-((3-(1-methyl-1H-pyrazol-3-yl)-4′-(trifluoromethyl)-[1,1′-biphenyl]-4-yl)methyl)acrylamide]
EC50 (NCI-H226): < 1 µM
EC50 (NCI-H2052): < 1 µM
EC50 [1]: < 1 µM

C=CC(=O)NCc1cnc(-c2ccc(F)cc2)cc1-n1cc(C)cn1 [compound 243, N-((6-(4-fluorophenyl)-4-(4-methyl-1H-pyrazol-1-yl)pyridin-3-yl)methyl)acrylamide]
EC50 (NCI-H226): < 1 µM
EC50 (NCI-H2052): 1 to 10 µM
EC50 [1]: < 1 µM

C=CC(=O)NCc1ccc(-c2ccc(F)cc2)cc1-n1ccc(C)n1 [compound 241, N-((4′-fluoro-3-(3-methyl-1H-pyrazol-1-yl)-[1,1′-biphenyl]-4-yl)methyl)acrylamide]
EC50 (NCI-H226): < 1 µM
EC50 (NCI-H2052): 1 to 10 µM
EC50 [1]: < 1 µM

C=CC(=O)NCc1ccc(-c2ccc(C(F)(F)F)cc2)cc1-c1ccn(C)n1 [compound 140, N-((3-(1-methyl-1H-pyrazol-3-yl)-4′-(trifluoromethyl)-[1,1′-biphenyl]-4-yl)methyl)acrylamide]
EC50 (NCI-H226): < 1 µM
EC50 (NCI-H2052): < 1 µM
EC50 [1]: < 1 µM

C=CC(=O)NCc1cc(-c2ccccc2)cc(-c2ccn(C)n2)c1 [compound 137, N-((5-(1-methyl-1H-pyrazol-3-yl)-[1,1′-biphenyl]-3-yl)methyl)acrylamide]
EC50 (NCI-H226): < 1 µM
EC50 (NCI-H2052): > 10 µM
EC50 [1]: < 1 µM

C=CC(=O)NCc1ccc(-c2ccc(C(F)(F)F)cc2)cc1-c1ccn(C2CC2)n1 [compound 167, N-((3-(1-cyclopropyl-1H-pyrazol-3-yl)-4′-(trifluoromethyl)-[1,1′-biphenyl]-4-yl)methyl)acrylamide]
EC50 (NCI-H226): 1 to 10 µM
EC50 (NCI-H2052): < 1 µM
EC50 [1]: < 1 µM

CNS(=O)(=O)CCNc1ccc(-c2cccc(F)c2)cc1-c1ccn(Cc2cccnc2)n1 [compound 088]
EC50 (NCI-H226): > 10 µM
EC50 [1]: < 1 µM

C=CC(=O)NCc1cnc(-c2cccc(Cl)c2)cc1-c1ccn(C(F)F)n1 [compound 213, N-((6-(3-chlorophenyl)-4-(1-(difluoromethyl)-1H-pyrazol-3-yl)pyridin-3-yl)methyl)acrylamide]
EC50 (NCI-H226): < 1 µM
EC50 (NCI-H2052): 1 to 10 µM
EC50 [1]: < 1 µM

C=CC(=O)NCc1ccc(-c2ccc(F)cc2)cc1-c1nnn(C)n1 [compound 188, N-((4′-fluoro-3-(2-methyl-2H-tetrazol-5-yl)-[1,1′-biphenyl]-4-yl)methyl)acrylamide]
EC50 (NCI-H226): < 1 µM
EC50 (NCI-H2052): < 1 µM
EC50 [1]: < 1 µM

NS(=O)(=O)CCNc1ccc(-c2ccccc2)cc1-c1ccn(Cc2cccnc2)n1 [compound 054, 2-((3-(1-(pyridin-3-ylmethyl)-1H-pyrazol-3-yl)-[1,1′-biphenyl]-4-yl)amino)ethane-1-sulfonamide]
EC50 (NCI-H226): < 1 µM
EC50 [1]: < 1 µM

C=CC(=O)Nc1cncc(-c2cccc(-c3ccn(Cc4ccccc4)n3)c2)c1 [compound 004, N-(5-(3-(1-benzyl-1H-pyrazol-3-yl)phenyl)pyridin-3-yl)acrylamide]
EC50 (NCI-H226): 1 to 10 µM
EC50 [1]: < 1 µM

C=CC(=O)NCc1ccc(-c2ccccc2)cc1-c1ccn(C)n1 [compound 135, N-((3-(1-methyl-1H-pyrazol-3-yl)-[1,1′-biphenyl]-4-yl)methyl)acrylamide]
EC50 (NCI-H226): < 1 µM
EC50 [1]: < 1 µM

C=CC(=O)NCCNc1ccc(-c2ccccc2)cc1-c1ccn(Cc2cccnc2)n1 [compound 075, N-(2-((3-(1-(pyridin-3-ylmethyl)-1H-pyrazol-3-yl)-[1,1′-biphenyl]-4-yl)amino)ethyl)acrylamide]
EC50 (NCI-H226): < 1 µM
EC50 [1]: 1 to 20 µM

C=CC(=O)NCc1ccc(-c2ccc(F)cc2)cc1-c1ccnn1C [compound 163, N-((4′-fluoro-3-(1-methyl-1H-pyrazol-5-yl)-[1,1′-biphenyl]-4-yl)methyl)acrylamide]
EC50 [1]: > 20 µM

C=CC(=O)NCc1ccc(-c2ccc(F)cc2)nc1-c1nn[nH]n1 [compound 200, N-((6-(4-fluorophenyl)-2-(2H-tetrazol-5-yl)pyridin-3-yl)methyl)acrylamide]
EC50 [1]: > 20 µM

CNS(=O)(=O)CCNc1ccc(-c2cc(F)cc(F)c2)cc1-c1ccn(C)n1 [compound 126, 2-((3′,5′-difluoro-3-(1-methyl-1H-pyrazol-3-yl)-[1,1′-biphenyl]-4-yl)amino)-N-methylethane-1-sulfonamide]
EC50 [1]: < 1 µM

CSCCNc1ccc(-c2ccccc2)cc1-c1ccn(Cc2cccnc2)n1 [compound 065, N-(2-(methylthio)ethyl)-3-(1-(pyridin-3-ylmethyl)-1H-pyrazol-3-yl)-[1,1′-biphenyl]-4-amine]
EC50 [1]: 1 to 20 µM

C=CC(=O)Nc1ccccc1-c1cccc(-c2ccn(Cc3ccccc3)n2)c1 [compound 008, N-(3′-(1-benzyl-1H-pyrazol-3-yl)-[1,1′-biphenyl]-2-yl)acrylamide]
EC50 [1]: 1 to 20 µM

CNS(=O)(=O)CCNc1ccc(-c2ccc(C(F)(F)F)cc2)cc1-c1ccn(Cc2cccc(F)c2)n1 [compound 103, 2-((3-(1-(3-fluorobenzyl)-1H-pyrazol-3-yl)-4′-(trifluoromethyl)-[1,1′-biphenyl]-4-yl)amino)-N-methylethane-1-sulfonamide]
EC50 [1]: < 1 µM

CS(=N)(=O)CCNc1ccc(-c2ccccc2)cc1-c1ccn(Cc2cccnc2)n1 (stereo not shown) [compound 066, imino(methyl)(2-((3-(1-(pyridin-3-ylmethyl)-1H-pyrazol-3-yl)-[1,1′-biphenyl]-4-yl)amino)ethyl)-λ^6-sulfanone]
EC50 [1]: < 1 µM

CCC(=O)NCc1ccc(-c2ccc(F)cc2)cc1-n1ccc(C)n1 [compound 242, N-((4′-fluoro-3-(3-methyl-1H-pyrazol-1-yl)-[1,1′-biphenyl]-4-yl)methyl)propionamide]
EC50 [1]: > 20 µM

c1ccc(Cn2nccc2-c2cccc(-c3cncnc3)c2)cc1 [compound 017, 5-(3-(1-benzyl-1H-pyrazol-5-yl)phenyl)pyrimidine]
EC50 [1]: 1 to 20 µM

CNS(=O)(=O)CCNc1cnc(-c2ccc(C(F)(F)F)cc2)cc1-c1ccn(C(F)F)n1 [compound 130, 2-((4-(1-(difluoromethyl)-1H-pyrazol-3-yl)-6-(4-(trifluoromethyl)phenyl)pyridin-3-yl)amino)-N-methylethane-1-sulfonamide]
EC50 [1]: < 1 µM

CNS(=O)(=O)CCNc1ccc(-c2ccc(Cl)cc2)cc1-c1ccn(C)n1 [compound 121, 2-((4′-chloro-3-(1-methyl-1H-pyrazol-3-yl)-[1,1′-biphenyl]-4-yl)amino)-N-methylethane-1-sulfonamide]
EC50 (NCI-H226): 1 to 10 µM
EC50 [1]: < 1 µM

CCC(=O)NCCNc1ccc(-c2ccccc2)cc1-c1ccn(Cc2cccnc2)n1 [compound 077]
EC50 [1]: < 1 µM

CNS(=O)(=O)CCNc1ccc(-c2cccc(Cl)c2)cc1-c1ccn(Cc2cccnc2)n1 [compound 091, 2-((3′-chloro-3-(1-(pyridin-3-ylmethyl)-1H-pyrazol-3-yl)-[1,1′-biphenyl]-4-yl)amino)-N-methylethane-1-sulfonamide]
EC50 [1]: < 1 µM

c1ccc(-c2cccc(-c3ccn(Cc4ccccn4)n3)c2)cc1 [compound 021, 2-((3-([1,1′-biphenyl]-3-yl)-1H-pyrazol-1-yl)methyl)pyridine]
EC50 [1]: 1 to 20 µM
